Assay results from the supplement of paper PMC11061612.

Legend:
[1] = tested on: D-392MG (Glioblastoma); test: Bliss excess, mean over the matrix (fraction); higher = more synergy
How it was run: (§1)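 Cell lines in DMEM/F12 or RPMI with 10% FBS were plated in 1536-well plates, held 24 hours at 37°C, 5% CO2, then given two-drug dose matrices for 72 hours (DMSO typically 0.2%). Viability was read by CellTiter-Glo 2.0 luminescence and scaled as inhibition from 0 (vehicle wells) to 1 (blank wells). Combination Emax is the second-highest inhibition in the matrix; Bliss excess is observed combination effect minus expected EA + EB − EA·EB, EA and EB being single-agent effects.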

[2] = tested on: HLE (Hepatocellular Carcinoma); test: as above
How it was run: as §1

[3] = tested on: SK-UT-1 (Other Solid Carcinomas); test: as above
How it was run: as §1

[4] = tested on: SLVL (B-Cell Non-Hodgkin's Lymphoma); test: as above
How it was run: as §1

[5] = tested on: SNU-61 (Colorectal Carcinoma); test: as above
How it was run: as §1

[6] = tested on: SW48 (Colorectal Carcinoma); test: as above
How it was run: as §1

[7] = tested on: A172 (Glioblastoma); test: combination Emax (second highest fraction inhibited in the dose matrix, 72 h); higher = more inhibition; extreme values may be limits of the assay
How it was run: as §1

[8] = tested on: BICR78 (Oral Cavity Carcinoma); test: as above
How it was run: as §1

[9] = tested on: HCC38 (Breast Carcinoma); test: as above
How it was run: as §1

[10] = tested on: HCT-116 (Colorectal Carcinoma); test: as above
How it was run: as §1

[11] = tested on: HLE (Hepatocellular Carcinoma); test: as above
How it was run: as §1

[12] = tested on: HuO9 (Osteosarcoma); test: as above
How it was run: as §1

[13] = tested on: JHH-6 (Hepatocellular Carcinoma); test: as above
How it was run: as §1

[14] = tested on: MEG-01 (Chronic Myelogenous Leukemia); test: as above
How it was run: as §1

[15] = tested on: MES-SA (Other Solid Carcinomas); test: as above
How it was run: as §1

[16] = tested on: MSTO-211H (Mesothelioma); test: as above
How it was run: as §1

[17] = tested on: NOMO-1 (Acute Myeloid Leukemia); test: as above
How it was run: as §1

[18] = tested on: PA-TU-8902 (Pancreatic Carcinoma); test: as above
How it was run: as §1

[19] = tested on: SK-MEL-1 (Melanoma); test: as above
How it was run: as §1

[20] = tested on: SLVL (B-Cell Non-Hodgkin's Lymphoma); test: as above
How it was run: as §1
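For Bliss excess, mean over the matrix in this document: after 72 h of two-drug dosing.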

Compound | Bliss excess [1] | Bliss excess [2] | Bliss excess [3] | Bliss excess [4] | Bliss excess [5] | Bliss excess [6] | combination Emax [7] | combination Emax [8] | combination Emax [9] | combination Emax [10] | combination Emax [11] | combination Emax [12] | combination Emax [13] | combination Emax [14] | combination Emax [15] | combination Emax [16] | combination Emax [17] | combination Emax [18] | combination Emax [19] | combination Emax [20]
CC1(C)CCC(CN2CCN(c3ccc(C(=O)NS(=O)(=O)c4ccc(NCC5CCOCC5)c([N+](=O)[O-])c4)c(Oc4cnc5[nH]ccc5c4)c3)CC2)=C(c2ccc(Cl)cc2)C1 [Venetoclax] + C[C@@H]1COCCN1C2=NC(=NC(=C2)C3(CC3)[S@](=N)(=O)C)C4=C5C=CNC5=NC=C4 [AZD6738] (first compound max 1 µM, 7x7, partner max 10 µM) | -0.0807 | -0.063 | -0.0299 | -0.0162 | 0.0295 | -0.0398 | 0.595 | 0.603 | 0.531 | 0.671 | 0.642 | 0.814 | 0.459 | 0.883 | 0.671 | 0.596 | 0.973 | 0.344 | 0.391 | 0.939
COc1cccc(OCCCN)c1-c1cc(Nc2cnc(C#N)cn2)n[nH]1 [Prexasertib] + C[C@@H]1COCCN1C2=NC(=NC(=C2)C3(CC3)[S@](=N)(=O)C)C4=C5C=CNC5=NC=C4 [AZD6738] (first compound max 1 µM, 7x7, partner max 10 µM) | 0.0355 | 0 | -0.0259 | -0.0455 | -0.0693 | 0.0015 | 0.775 | 0.645 | 0.723 | 0.747 | 0.867 | 0.855 | 0.367 | 0.929 | 0.757 | 0.852 | 1 | 0.601 | 0.624 | 0.952
CC(=O)Nc1cccc(-n2c(=O)n(C3CC3)c(=O)c3c(Nc4ccc(I)cc4F)n(C)c(=O)c(C)c32)c1 [Trametinib] + Cc1nc(-c2cn3c(n2)-c2ccc(-c4cnn(C(C)(C)C(N)=O)c4)cc2OCC3)n(C(C)C)n1 [Taselisib] (first compound max 1 µM, 7x7, partner max 10 µM) | 0.137 | -0.0291 | 0.0411 | 0.134 | 0.0995 | 0.178 | 0.761 | 0.726 | 0.364 | 1 | 0.401 | 0.8 | 0.636 | 0.953 | 0.825 | 0.854 | 0.98 | 0.724 | 0.942 | 0.478
CC1(C)CCC(CN2CCN(c3ccc(C(=O)NS(=O)(=O)c4ccc(NCC5CCOCC5)c([N+](=O)[O-])c4)c(Oc4cnc5[nH]ccc5c4)c3)CC2)=C(c2ccc(Cl)cc2)C1 [Venetoclax] + C1CN(CCC1(C(=O)N[C@@H](CCO)C2=CC=C(C=C2)Cl)N)C3=NC=NC4=C3C=CN4 [Capivasertib] (first compound max 1 µM, 7x7, partner max 3 µM) | -0.0437 | -0.0132 | 0.0153 | -0.0284 | -0.0321 | -0.0679 | 0.289 | 0.323 | 0.244 | 0.309 | 0.181 | 0.488 | 0.232 | 0.731 | 0.355 | 0.251 | 0.919 | 0.162 | 0.208 | 0.786
CC1(C)CCC(CN2CCN(c3ccc(C(=O)NS(=O)(=O)c4ccc(NCC5CCOCC5)c([N+](=O)[O-])c4)c(Oc4cnc5[nH]ccc5c4)c3)CC2)=C(c2ccc(Cl)cc2)C1 [Venetoclax] + C=CCn1c(=O)c2cnc(Nc3ccc(N4CCN(C)CC4)cc3)nc2n1-c1cccc(C(C)(C)O)n1 [AZD1775] (first compound max 1 µM, partner max 1 µM) | 0.0593 | -0.0648 | 0.0562 | 0.0249 | -0.0321 | 0.0294 | 0.315 | 0.553 | 0.573 | 0.579 | 0.749 | 0.759 | 0.296 | 0.913 | 0.787 | 0.592 | 0.99 | 0.286 | 0.411 | 0.978
NC1(C(=O)N[C@@H](CCO)c2ccc(Cl)cc2)CCN(c2ncnc3[nH]ccc23)CC1 [Capivasertib] + CCN(CCO)CCCOc1ccc2c(Nc3cc(CC(=O)Nc4cccc(F)c4)[nH]n3)ncnc2c1 [AZD2811] (first compound max 10 µM, 7x7, partner max 1 µM) | -0.0265 | 0.0121 | 0.0666 | -0.0608 | -0.0435 | 0.0146 | 0.52 | 0.392 | 0.359 | 0.587 | 0.33 | 0.464 | 0.4 | 0.638 | 0.756 | 0.379 | 0.735 | 0.348 | 0.292 | 0.667
Cc1c2c(nn1C)CSCc1cc(n(C)n1)CSc1cc(c3ccccc3c1)OCCCc1c(C(=O)O)n(C)c3c-2c(Cl)ccc13 [AZD5991] + CN(C)CCCOc1ccc(-c2ccc3ncc4c(c3c2)n(C2CCOCC2)c(=O)n4C)cn1 [AZD0156] (first compound max 1 µM, 7x7, partner max 1 µM) | -0.0225 | 0.0424 | -0.0195 | 0.0198 | -0.0047 | 0.0051 | 0.228 | 0.219 | 0.365 | 0.265 | 0.39 | 1 | 0.188 | 0.432 | 0.384 | 0.188 | 0.863 | 0.192 | 0.261 | 0.425
CN(CCO)CC[C@H](CSc1ccccc1)Nc1ccc(S(=O)(=O)NC(=O)c2ccc(N3CCC([C@@H](O)c4ccccc4-c4ccc(Cl)cc4)CC3)cc2)cc1S(=O)(=O)C(F)(F)F [AZD4320] + C1CN(CCC1(C(=O)N[C@@H](CCO)C2=CC=C(C=C2)Cl)N)C3=NC=NC4=C3C=CN4 [Capivasertib] (first compound max 1 µM, 7x7, partner max 3 µM) | -0.0649 | -0.126 | -0.0006 | 0.0563 | -0.038 | 0.0148 | 0.158 | 0.244 | 0.848 | 0.146 | 0.274 | 0.873 | 0.153 | 0.901 | 0.282 | 0.48 | 0.51 | 0.156 | 0.419 | 0.622
Cc1c2c(nn1C)CSCc1cc(n(C)n1)CSc1cc(c3ccccc3c1)OCCCc1c(C(=O)O)n(C)c3c-2c(Cl)ccc13 [AZD5991] + Cn1cnc2c(F)c(Nc3ccc(Br)cc3Cl)c(C(=O)NOCCO)cc21 [Selumetinib] (first compound max 1 µM, 7x7, partner max 3 µM) | 0.0339 | -0.0459 | -0.0063 | 0.0516 | -0.0079 | 0.0102 | 0.316 | 0.441 | 0.33 | 0.523 | 0.326 | 1 | 0.253 | 0.872 | 0.23 | 0.264 | 1 | 0.293 | 0.912 | 0.47
CN(C)CCCOc1ccc(-c2ccc3ncc4c(c3c2)n(C2CCOCC2)c(=O)n4C)cn1 [AZD0156] + C[C@@H]1COCCN1C2=NC(=NC(=C2)C3(CC3)[S@](=N)(=O)C)C4=C5C=CNC5=NC=C4 [AZD6738] (first compound max 1 µM, 7x7, partner max 10 µM) | -0.0549 | 0.0261 | 0.0126 | -0.0134 | -0.0047 | -0.0043 | 0.717 | 0.696 | 0.558 | 0.665 | 0.778 | 0.838 | 0.337 | 0.912 | 0.807 | 0.856 | 0.94 | 0.41 | 0.442 | 0.84
COc1cc2c(cc1OCCCCCOc1cc3c(cc1OC)C(=O)N1C=C(C)C[C@H]1C=N3)N=C[C@@H]1CC(C)=CN1C2=O [SG3199] + O=C(c1cc(Cc2n[nH]c(=O)c3ccccc23)ccc1F)N1CCN(C(=O)C2CC2)CC1 [Olaparib] (first compound max 0.001 µM, 7x7, partner max 10 µM) | -0.0623 | -0.0323 | -0.0181 | -0.0314 | -0.0453 | -0.0321 | 0.363 | 0.131 | 0.0919 | 0.314 | 0.143 | 0.2 | 0.113 | 0.111 | 0.43 | 0.124 | 0.145 | 0.0749 | 0.134 | 0.518
CC1(C)CCC(CN2CCN(c3ccc(C(=O)NS(=O)(=O)c4ccc(NCC5CCOCC5)c([N+](=O)[O-])c4)c(Oc4cnc5[nH]ccc5c4)c3)CC2)=C(c2ccc(Cl)cc2)C1 [Venetoclax] + CCN(CCO)CCCOc1ccc2c(Nc3cc(CC(=O)Nc4cccc(F)c4)[nH]n3)ncnc2c1 [AZD2811] (first compound max 1 µM, 7x7, partner max 1 µM) | -0.0351 | 0.005 | 0.0491 | 0.0685 | -0.0084 | -0.0071 | 0.423 | 0.245 | 0.253 | 0.456 | 0.416 | 0.336 | 0.193 | 0.799 | 0.408 | 0.394 | 0.905 | 0.192 | 0.292 | 0.901
COc1cccc(OCCCN)c1-c1cc(Nc2cnc(C#N)cn2)n[nH]1 [Prexasertib] + C=CCn1c(=O)c2cnc(Nc3ccc(N4CCN(C)CC4)cc3)nc2n1-c1cccc(C(C)(C)O)n1 [AZD1775] (first compound max 1 µM, partner max 1 µM) | 0.109 | 0.0125 | 0.071 | 0.0481 | -0.0124 | 0.1 | 0.832 | 0.713 | 0.799 | 0.921 | 0.881 | 0.954 | 0.599 | 0.939 | 0.892 | 0.875 | 1 | 0.605 | 0.605 | 0.951
